The source of these data is patent US10077455B2, “3HP tolerance” (TECHNICAL UNIVERSITY OF DENMARK, priority 2013, dated 2018).

In one data set the test system is S. pombe. Put plainly: Effect of GSH addition on growth of yeast strains with 50 g/L 3HP. It is filed as cell-based, Schizosaccharomyces pombe.
Another data set relates to Rhodotorula minuta. Described as above. Type of data set: cell-based.
The test system of data set [1] is E. coli strains W3110, CROOKS, W, BL21 (DE3), MG1655. Put plainly: Effect of GSH addition on growth of E. coli strains in M9 with 20 g/L 3HP. It is filed as cell-based. Particulars: for effect of GSH addition on viability: M9 minimal medium with 20 g/L 3HP, pH 7.0, 37° C. As to the method: For E. coli, the effect of GSH addition on the growth of E. coli in the presence of 20 g/L 3HP was investigated. Five platform E. coli wild-type strains e.g. W3110, CROOKS, W, BL21 (DE3) and MG1655 were selected for 3HP tolerance experiment. Single colony from each strain was inoculated into 3 mL M9 medium and incubated at 250 rpm, 37° C., overnight. Two μL of the overnight cultures were used to inoculate 150 μL M9 medium, M9 with 20 g/L 3HP, and M9 with 20 g/L 3HP and 5 mM GSH in 96-well flat bottom plate. The pH of all E. coli tested media was at pH 7.0.
The composition of M9 medium was as follows: 2.0 g/L glucose, 6.8 g/L Na HPO4, 3.0 g/L KH2PO4, 0.5 g/L NaCl, 1.0 g/L NH4Cl, 0.24 g/L MgSO4, 0.011 g/L CaCl2, 0.5 mL/L trace elements solution, and 1.0 mL/L Wolfe's Vitamin solution. The trace elements solution included 1.0 g/L FeCl3.6H2O, 0.18 g/L ZnSo4.7H2O, 0.12 g/L CuCl2.2H2O, 0.12 g/L MnSO4.H2O, and 0.18 g/L CoCl2.6H2O. The Wolfe's vitamin solution included 10 mg/L pyridoxine hydrochloride, 5.0 mg/L thiamine HCl, 5.0 mg/L riboflavin, 5.0 mg/L nicotinic acid, 5.0 mg/L calcium-(+) phantothenate, 5.0 mg/L para-amino benzoic acid, 5.0 mg/L thiotic acid, 2.0 mg/L d-biotin, 2.0 mg/L folic acid, and 0.1 mg/L vitamin B12. The trace elements and vitamin solutions were sterile-filtered and the solution was stored at 4° C. The M9 salt solution was prepared as a 10× concentrate solution and sterilized by autoclaving. 20% Glucose solution, 1M MgSO4, and 1M CaCl2 stock solutions were autoclaved separately.

A further data set relates to T. delbrueckii. Put plainly: Effect of GSH addition on growth of yeast strains with 50 g/L 3HP. Type of data set: cell-based, Torulaspora delbrueckii.
In a further data set the test system is C. jadinii. The description is as above. It is filed as cell-based, Cyberlindnera jadinii.
Data set [2] has as its system S. cerevisiae CEN.PK 113-7D strain (WT). The data set can be described thus: Toxicity of 3HP on growth of S. cerevisiae in Delft minimal medium. Type of data set: cell-based, Saccharomyces cerevisiae. To be noted: Delft buffered medium pH 3.5, 30° C., 42 hours. As to the method: The toxicity of 3HP on growth of S. cerevisiae CEN.PK 113-7D strain (WT) was determined by evaluating the ability of the WT strain to grow on a chemically defined minimal medium (Delft) containing varying concentrations of 3HP (0-100 g/L). The composition of Delft medium was as follows: 20.0 g/L glucose, 5.0 g/L (NH4)2SO4, 3.0 g/L KH2PO4, 0.5 g/L MgSO4.7H2O, 1.0 mL/L trace metal solution, 0.05 g/L antifoam A (10794, Sigma-Aldrich), and 1.0 mL/L vitamin solution. The trace element solution included 15 g/L EDTA, 0.45 g/L CaCl2.2H2O, 0.45 g/L ZnSO4.7H2O, 0.3 g/L FeSO4.7H2O, 100 mg/L […], 1 g/L MnCl2.2H2O, 0.3 g/L CoCl2.6H2O, 0.3 g/L CuSO4.5H2O, 0.4 g/L NaMoO4.2H2O. The pH of the trace metal solution was adjusted to 4.0 with 2 M NaOH and heat sterilized. […]
A single colony from YPD plate (10 g/L yeast extract, 20 g/L peptone, 20 g/L glucose and 20 g/L agar) was inoculated in a shake flask with 20 mL YPD broth and grown at 30° C., with shaking at 200 rpm, overnight. The absorbance (OD600) of the overnight culture was measured at 600 nm wave length using NanoPhotometer™ UV/Vis (Implen) and the culture was diluted with YPD medium to obtain inoculum with the OD600 around 0.8. […] Experiments were done in duplicates, and the specific growth rate (h^−1) was calculated at various concentrations of 3HP.

The test system of data set [3] is S. cerevisiae strains ST609, ST610, ST611. The data set can be described thus: 3HP tolerance of SFA1 allele replacement strains. It is filed as cell-based, Saccharomyces cerevisiae. To be noted: Delft buffered pH 3.5. As to the method:
For testing 3HP tolerance phenotype, two single colonies from each strain: ST609 (SFA1-wt), ST610 (SFA1^G827C) and ST611 (SFA1^G849A) were investigated for the ability to grow on media containing 3HP. […] The plate was incubated at 30° C. with 250 rpm agitation at 5 cm orbit cast overnight. […] Experiments were done in duplicates.

The test system of the next data set is Y. lipolytica. Put plainly: Effect of GSH addition on growth of yeast strains with 50 g/L 3HP. Type of data set: cell-based, Yarrowia lipolytica.
For another data set, the system named is K. marxianus. The description is as above. It is filed as cell-based, Kluyveromyces marxianus.
Data set [4] deals with S. cerevisiae WT, SFA1-alleles and sfa1Δ strains. As to the method: The role of GSH in 3HP detoxification was investigated. The WT, SFA1-allles, and sfa1Δ strains were grown in the minimal medium with or without 50 g/L 3HP and supplemented with various concentration of external GSH (0-30 mM) and tested for 3HP tolerance.
For testing 3HP tolerance phenotype, the pre-cultures were prepared by inoculation of a single colony in 1 mL Delft buffered (pH 3.5) media containing 10 g/L 3HP. The cultures were incubated at 30° C. with 250 rpm overnight. Five μL of the overnight cultures were used to inoculate 100 μL Delft buffered (pH 3.5) with or without 50 g/L 3HP and various concentration of GSH (0, 1, 2.5, 5, 10, and 20 mM) in 96-well flat bottom plate. The 96-well plate was incubated at 30° C. with shaking in the Synergy™ MX microplate reader (BioTek) and the absorbance was measured at 600 nm wavelength every 15 min for 42 hours. Experiments were done in triplicates.

Another data set has as its system S. cerevisiae. To be noted: 5 mM GSH, 50 g/L 3HP, Delft medium pH 6.0, 25° C. On the procedure:
(§1) The yeast strains were grown in 3 mL Delft medium (pH 6.0) at 250 rpm, 25° C., overnight. Three μL of the overnight cultures were used to inoculate 100 μL Delft medium (pH 6.0) with or without 50 g/[…] in 96-well flat bottom plate. The 96-well plate was incubated with shaking in the SynergyTM MX microplate reader (BioTek) at 25° C. and the absorbance was measured at 600 nm wavelength every 15 min for 72 hours. Experiments were done in triplicates, and the specific growth rate (h^-1) was calculated. The effect of GSH addition was performed by adding 5 mM GSH into the cultivation medium containing 50 g/[…]. The growth of each strain was determined as mentioned above.

For the next data set, the system named is S. kluyveri. To be noted: 5 mM GSH, 50 g/L 3HP, Delft medium pH 6.0, 25° C. As to the method:
as §1

Another data set has as its system K. lactis. Particulars: 5 mM GSH, 50 g/L 3HP, Delft medium pH 6.0, 25° C. As to the method: as §1
Another data set concerns haploid wild-type cells. To be noted: cited from earlier work.
The mark [5] stands for this setting: 5 mM GSH, 50 g/L 3HP, Delft medium pH 6.0.

Protocol for C. jadinii: (§2) The yeast strains were grown in 3 mL Delft medium (pH 6.0) at 250 rpm, 25° C., overnight. Three μL of the overnight cultures were used to inoculate 100 μL Delft medium (pH 6.0) with or without 50 g/[MUT] in 96-well flat bottom plate. The 96-well plate was incubated with shaking in the SynergyTM MX microplate reader (BioTek) at 25° C. and the absorbance was measured at 600 nm wavelength every 15 min for 72 hours. Experiments were done in triplicates, and the specific growth rate (h^-1) was calculated. The effect of GSH addition was performed by adding 5 mM GSH into the cultivation medium containing 50 g/[MUT]. The growth of each strain was determined as mentioned above.
Protocol for K. marxianus: as §2
Protocol for Rhodotorula minuta: as §2
Protocol for S. pombe: as §2
Protocol for T. delbrueckii: as §2
Protocol for Y. lipolytica: as §2

Turning to `O=C(O)CCO` [3HP, 3-hydroxypropionic acid], the “3HP concentration tolerated (with decreased specific growth rate)” value in the data set with S. pombe (Delft medium pH 6.0, 25° C.) is listed as “more than 50 g/L”; with Rhodotorula minuta (Delft medium pH 6.0, 25° C.), “more than 50 g/L”; with T. delbrueckii (Delft medium pH 6.0, 25° C.), “more than 50 g/L”; in the data set with C. jadinii (Delft medium pH 6.0, 25° C.), “more than 50 g/L”; in the data set on Y. lipolytica (Delft medium pH 6.0, 25° C.), “more than 50 g/L”; in the data set on K. marxianus (Delft medium pH 6.0, 25° C.), “more than 50 g/L”. The “decrease in the specific growth rate compared to the cells grown in M9 medium” value in data set [1] (strain MG1655, M9 medium containing 20 g/L 3HP) worked out at 2.2 fold. In data set [2], the “concentration of 3-HP at which the wild type yeast is unable to grow at all” value is given as 75 g/L. For the same compound, the “concentration of 3-HP producing a substantial level of inhibition of growth” value in data set [2] is on record as “above 10 g/L”. In addition, in data set [3] (ST609 (SFA1-wt allele without over expression)), the “3HP concentration in minimum media at which the strain could not grow” value is on record as “above 40 g/L”. Also, the “3HP concentration in minimum media at which the strain could grow” value in data set [3] (ST610 (SFA1^G827C)) and in data set [3] (ST611 (SFA1^G849A)) was “above 40 g/L” throughout.
On to `N[C@@H](CCC(=O)N[C@@H](CS)C(=O)NCC(=O)O)C(=O)O` [GSH, glutathione], for which the “GSH concentration that restored growth in the presence of 50 g/L 3HP” value in [4] (WT S. cerevisiae, 50 g/L 3HP, Delft buffered pH 3.5) was no less than 2.5 mM. Moreover, in data set [4] (all strains, minimal medium without 50 g/L 3HP), the “effect of GSH on growth” value is reported as “no significant effect”. The “effect of GSH addition on growth” value in [4] (sfa1Δ strain, 50 g/L 3HP) was “could not be restored”. Also, in [4] (strain carrying the SFA1 alleles, 50 g/L 3HP), the “effect of GSH addition on growth rate” value is reported as “improved the growth rate”. The “effect of GSH addition on specific growth rate” value in the data set on S. pombe (setting [5]) was “improved”; with Rhodotorula minuta (setting [5]), “improved”; in data set [1] (strain MG1655, 5 mM GSH, medium containing 20 g/L 3HP) it was “improved”; in the data set with T. delbrueckii (setting [5]) it was “improved”; with C. jadinii (setting [5]), “improved”; in the data set on Y. lipolytica (setting [5]), “improved”. The “effect of GSH addition on specific growth rate” value in the data set on K. marxianus (setting [5]) is reported as “improved”. In addition, the “effect of GSH addition on viability” value is listed as “restored the viability” in data set [1] (strain BL21, 5 mM GSH); “restored the viability” in [1] (strain CROOKS, 5 mM GSH); “restored the viability” in data set [1] (strain W3110, 5 mM GSH); “restored the viability” in data set [1] (strain W, 5 mM GSH); “restored the viability” with S. cerevisiae; “restored the viability” in the data set with S. kluyveri. In addition, the “effect of GSH addition on viability” value with K. lactis is given as “restored the viability”.
Consider `C=O` [formaldehyde], for which the “concentration that is cytostatic or cytotoxic” value with haploid wild-type cells is no less than 1000 µM.
